Reference: the supplement of paper PMC10883282

Experiments:
Assay in all cases: relative viability vs DMSO control (72 h) (fraction); higher = more viable cells
SK-LMS-1 = tested on: SK-LMS-1
Procedure, shortened: (§1)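 Sarcoma cell lines went into 384-well plates at densities chosen to reach 80–90% confluence. After 24 h, each well received 2.5 µl of serially diluted compound, with source plates running from 10 mM to 0.0002 mM, and the plates were kept 72 h at 37 °C, 5% CO2, alongside 0.1% DMSO vehicle and a 5 µM positive control. Relative viability was derived from ATPLite readings as percent growth and averaged over up to triplicate wells. The data were then rescaled so that 1 stands for full and 0 for none.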

VA-ES-BJ = tested on: VA-ES-BJ
Procedure, shortened: as §1

KHOS-240S = tested on: KHOS-240S
Procedure, shortened: as §1

A204 = tested on: A204
Procedure, shortened: as §1

MES-SA = tested on: MES-SA
Procedure, shortened: as §1

SW1353 = tested on: SW1353
Procedure, shortened: as §1

SK-ES-1 = tested on: SK-ES-1
Procedure, shortened: as §1

RD = tested on: RD
Procedure, shortened: as §1

SW872 = tested on: SW872
Procedure, shortened: as §1

G401 = tested on: G401
Procedure, shortened: as §1

HS729 = tested on: HS729
Procedure, shortened: as §1

SW982 = tested on: SW982
Procedure, shortened: as §1

CCN(CCCOc1ccc2c(Nc3cc(CC(=O)Nc4cccc(F)c4)[nH]n3)ncnc2c1)CCOP(=O)(O)O [Barasertib]
Details | relative viability
A204, 0.00017 µM | 1.05
A204, 0.00051 µM | 1.05
A204, 0.00152 µM | 1.05
A204, 0.00457 µM | 1.04
A204, 0.01372 µM | 0.9872
A204, 0.04115 µM | 0.907
A204, 0.1235 µM | 0.859
A204, 0.3704 µM | 0.813
A204, 1.111 µM | 0.7
A204, 3.333 µM | 0.441
A204, 10 µM | 0.379
G401, 0.00017 µM | 0.961
G401, 0.00051 µM | 0.998
G401, 0.00152 µM | 0.996
G401, 0.00457 µM | 0.97
G401, 0.01372 µM | 0.897
G401, 0.04115 µM | 0.798
G401, 0.1235 µM | 0.777
G401, 0.3704 µM | 0.8003
G401, 1.111 µM | 0.799
G401, 3.333 µM | 0.776
G401, 10 µM | 0.677
HS729, 0.00017 µM | 0.957
HS729, 0.00051 µM | 0.934
HS729, 0.00152 µM | 0.947
HS729, 0.00457 µM | 0.936
HS729, 0.01372 µM | 0.901
HS729, 0.04115 µM | 0.934
HS729, 0.1235 µM | 0.877
HS729, 0.3704 µM | 0.801
HS729, 1.111 µM | 0.8
HS729, 3.333 µM | 0.815
HS729, 10 µM | 0.804
KHOS-240S, 0.00017 µM | 1.04
KHOS-240S, 0.00051 µM | 1.02
KHOS-240S, 0.00152 µM | 1.03
KHOS-240S, 0.00457 µM | 1
KHOS-240S, 0.01372 µM | 0.978
KHOS-240S, 0.04115 µM | 0.9
KHOS-240S, 0.1235 µM | 0.794
KHOS-240S, 0.3704 µM | 0.759
KHOS-240S, 1.111 µM | 0.744
KHOS-240S, 3.333 µM | 0.736
KHOS-240S, 10 µM | 0.712
MES-SA, 0.00017 µM | 0.92
MES-SA, 0.00051 µM | 0.915
MES-SA, 0.00152 µM | 0.911
MES-SA, 0.00457 µM | 0.892
MES-SA, 0.01372 µM | 0.692
MES-SA, 0.04115 µM | 0.448
MES-SA, 0.1235 µM | 0.448
MES-SA, 0.3704 µM | 0.447
MES-SA, 1.111 µM | 0.436
MES-SA, 3.333 µM | 0.444
MES-SA, 10 µM | 0.398
RD, 0.00017 µM | 1.09
RD, 0.00051 µM | 1.09
RD, 0.00152 µM | 1.1
RD, 0.00457 µM | 1.06
RD, 0.01372 µM | 0.943
RD, 0.04115 µM | 0.888
RD, 0.1235 µM | 0.869
RD, 0.3704 µM | 0.84
RD, 1.111 µM | 0.803
RD, 3.333 µM | 0.759
RD, 10 µM | 0.681
SK-ES-1, 0.00017 µM | 1.05
SK-ES-1, 0.00051 µM | 1.09
SK-ES-1, 0.00152 µM | 1.04
SK-ES-1, 0.00457 µM | 0.98
SK-ES-1, 0.01372 µM | 0.237
SK-ES-1, 0.04115 µM | 0.065
SK-ES-1, 0.1235 µM | 0.0636
SK-ES-1, 0.3704 µM | 0.0641
SK-ES-1, 1.111 µM | 0.061
SK-ES-1, 3.333 µM | 0.0649
SK-ES-1, 10 µM | 0.0658
SK-LMS-1, 0.00017 µM | 1.02
SK-LMS-1, 0.00051 µM | 1.02
SK-LMS-1, 0.00152 µM | 1.03
SK-LMS-1, 0.00457 µM | 1
SK-LMS-1, 0.01372 µM | 1.06
SK-LMS-1, 0.04115 µM | 1.01
SK-LMS-1, 0.1235 µM | 0.917
SK-LMS-1, 0.3704 µM | 0.855
SK-LMS-1, 1.111 µM | 0.904
SK-LMS-1, 3.333 µM | 0.887
SK-LMS-1, 10 µM | 0.867
SW872, 0.00017 µM | 1.01
SW872, 0.00051 µM | 1.01
SW872, 0.00152 µM | 0.9782
SW872, 0.00457 µM | 0.985
SW872, 0.01372 µM | 0.975
SW872, 0.04115 µM | 0.962
SW872, 0.1235 µM | 0.897
SW872, 0.3704 µM | 0.918
SW872, 1.111 µM | 0.912
SW872, 3.333 µM | 0.892
SW872, 10 µM | 0.8645
SW982, 0.00017 µM | 1.06
SW982, 0.00051 µM | 1.03
SW982, 0.00152 µM | 1.05
SW982, 0.00457 µM | 1.05
SW982, 0.01372 µM | 1
SW982, 0.04115 µM | 0.713
SW982, 0.1235 µM | 0.5551
SW982, 0.3704 µM | 0.552
SW982, 1.111 µM | 0.589
SW982, 3.333 µM | 0.525
SW982, 10 µM | 0.468
SW1353, 0.00017 µM | 0.955
SW1353, 0.00051 µM | 0.972
SW1353, 0.00152 µM | 0.939
SW1353, 0.00457 µM | 0.985
SW1353, 0.01372 µM | 0.867
SW1353, 0.04115 µM | 0.841
SW1353, 0.1235 µM | 0.842
SW1353, 0.3704 µM | 0.812
SW1353, 1.111 µM | 0.823
SW1353, 3.333 µM | 0.82
SW1353, 10 µM | 0.8463
VA-ES-BJ, 0.00017 µM | 1.01
VA-ES-BJ, 0.00051 µM | 1.01
VA-ES-BJ, 0.00152 µM | 0.986
VA-ES-BJ, 0.00457 µM | 0.998
VA-ES-BJ, 0.01372 µM | 0.84
VA-ES-BJ, 0.04115 µM | 0.634
VA-ES-BJ, 0.1235 µM | 0.619
VA-ES-BJ, 0.3704 µM | 0.647
VA-ES-BJ, 1.111 µM | 0.689
VA-ES-BJ, 3.333 µM | 0.68
VA-ES-BJ, 10 µM | 0.727
